Type in all cases: cell-based
Assay [1] has as its system Wnt activity (Sp5-Luc reporter, SW480 colon carcinoma cells). The experiment in a line: Wnt activity screening assay: Sp5-Luc reporter gene in SW480 colon carcinoma cells. The conditions noted are these: Homo sapiens, overnight incubation, 10-point curve from 10 μM. In a few lines: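 Luminescence read-out (BrightGlo) from stable Sp5-Luc SW480 cells, normalized to DMSO-only wells. Cells were treated overnight at 37° C in 1% FBS medium across a 1:3, 10-point series starting at 10 μM. EC50 from variable-slope four-parameter regression; percent inhibition at 10 μM given where EC50 >10 μM.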

The test system of assay [2] is SW480 colon cancer cells. As to the kind of experiment: Cell viability assay (CellTiter-Blue), SW480 colon cancer cells. The conditions noted are these: Homo sapiens, 96 h, four days; for EC50: CellTiter-Blue. The gist of the method: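 SW480 cells (~2×10^3/well) exposed four days at 37 °C to 8-point 1:3 dilutions, 10 μM down to 0.0045 μM. Viability from resazurin reduction (CellTiter-Blue, ~3 h, Ex 560/Em 590); EC50 by non-linear regression, or percent inhibition at 10 μM where EC50 exceeds 10 μM.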

Assay [3] deals with IL-6 (THP-1 cells). The experiment in a line: IL-6 inhibition in LPS-stimulated THP-1 human monocyte cells (HTRF). The conditions noted are these: LPS 500 ng/mL, 22 hours, IL6 HTRF. The gist of the method: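 THP-1 cells, serum-reduced (1% FBS) for 24 h, were preincubated with compound (10-point 1:3 series from 10 μM, 0.1% DMSO) for 2 h, then stimulated with 500 ng/mL LPS for 22 h at 37° C. IL-6 was read by HTRF (665/620 nm ratio) and normalized to DMSO. EC50 from four-parameter fit; % inhibition at 10 μM given if EC50 >10 μM.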
For orientation: TR-FRET usually uses a lanthanide donor and a delayed reading to cut background.

The structures appear in SMILES notation. Where only a bound is given, the exact number is not on record here.

With `CN(C)c1cncc(-c2ccc3[nH]nc(-c4cc5c(-c6ccoc6)cccc5[nH]4)c3n2)c1` [Compound 315, 5-(3-(4-(Furan-3-yl)-1H-indol-2-yl)-1H-pyrazolo[4,3-b]pyridin-5-yl)-N,N-dimethylpyridin-3-amine], the EC50 (in general, the concentration needed to bring the measured effect to its halfway point) in assay [1] is 600 nM; in assay [2], 1910 nM; in assay [3] it was 1370 nM.
The like results for `c1cc(-c2ccoc2)c2cc(-c3n[nH]c4ccc(-c5cncc(CNCC6CCCC6)c5)nc34)[nH]c2c1` [Compound 333, 1-Cyclopentyl-N-((5-(3-(4-(furan-3-yl)-1H-indol-2-yl)-1H-pyrazolo[4,3-b]pyridin-5-yl)pyridin-3-yl)methyl)methanamine] were, in that order, 3640 nM, 3450 nM and 3570 nM.
Consider `FC1(F)CCN(Cc2cncc(-c3ccc4[nH]nc(-c5cc6c(-c7cccs7)cccc6[nH]5)c4n3)c2)C1` [Compound 362, 5-(5-((3,3-Difluoropyrrolidin-1-yl)methyl)pyridin-3-yl)-3-(4-(thiophen-2-yl)-1H-indol-2-yl)-1H-pyrazolo[4,3-b]pyridine], for which the values for the EC50 in assay [1], in assay [2] and in assay [3] were 3240 nM, above 10000 nM and 6340 nM, respectively. Besides, the inhibition (in general, the drop in the measured response relative to a control, in per cent) at 10 µM in assay [2] (given where EC50 >10 μM, 10 μM, read-out: percent inhibition at 10 μM) was 15.3%.
For `CN(C)CCNc1cc(F)cc(-c2cccc3[nH]c(-c4n[nH]c5ccc(-c6cccnc6)nc45)cc23)c1` [Compound 452, N^1-(3-Fluoro-5-(2-(5-(pyridin-3-yl)-1H-pyrazolo[4,3-b]pyridin-3-yl)-1H-indol-4-yl)phenyl)-N^2,N^2-dimethylethane-1,2-diamine], the values for the EC50 in assay [1], in assay [2] and in assay [3] were 239 nM, 290 nM and 68 nM, respectively.
Regarding `CN(C)CCNc1cc(F)cc(-c2cccc3[nH]c(-c4n[nH]c5ccc(-c6cncc(CN7CCCCC7)c6)nc45)cc23)c1` [Compound 463, N^1-(3-Fluoro-5-(2-(5-(5-(piperidin-1-ylmethyl)pyridin-3-yl)-1H-pyrazolo [4,3-b]pyridin-3-yl)-1H-indol-4-yl)phenyl)-N^2,N^2-dimethylethane-1,2-diamine], the EC50 was determined as 1390 nM in assay [1], 1180 nM in assay [2] and 209 nM in assay [3].
The like results for `CN(C)CCNc1cc(F)cc(-c2cccc3[nH]c(-c4n[nH]c5ccc(-c6cncnc6)nc45)cc23)c1` [Compound 475, N^1-(3-Fluoro-5-(2-(5-(pyrimidin-5-yl)-1H-pyrazolo[4,3-b]pyridin-3-yl)-1H-indol-4-yl)phenyl)-N^2,N^2-dimethylylethane-1,2-diamine] were, in that order, 498 nM, 1300 nM and 18 nM.
The corresponding values for `CN(C)CCNc1cc(F)cc(-c2cccc3[nH]c(-c4n[nH]c5ccc(-c6ccccn6)nc45)cc23)c1` [Compound 476, N^1-(3-Fluoro-5-(2-(5-(pyridin-2-yl)-1H-pyrazolo[4,3-b]pyridin-3-yl)-1H-indol-4-yl)phenyl)-N^2,N^2-dimethylethane-1,2-diamine] are 4620 nM, 5900 nM and 278 nM.
The like results for `Cc1ccncc1-c1ccc2[nH]nc(-c3cc4c(-c5cc(F)cc(CNS(C)(=O)=O)c5)cccc4[nH]3)c2n1` [Compound 481, N-(3-Fluoro-5-(2-(5-(4-methylpyridin-3-yl)-1H-pyrazolo[4,3-b]pyridin-3-yl)-1H-indol-4-yl)benzyl)methanesulfonamide] were, in that order, 162 nM, 592 nM and 101 nM.
As for `Nc1cncc(-c2ccc3[nH]nc(-c4cc5ncccc5[nH]4)c3n2)c1` [Compound 507, 5-(3-(1H-Pyrrolo[3,2-b]pyridin-2-yl)-1H-pyrazolo[4,3-b]pyridin-5-yl) pyridin-3-amine], the EC50 in assay [1] was determined as 256 nM; in assay [2] it was 965 nM; in assay [3], 8 nM.

The values above are taken from patent US10226453B2, “3-(1H-indol-2-yl)-1H-pyrazolo[4,3-B]pyridines and therapeutic uses thereof” (Samumed, LLC, priority 2015, dated 2019).
